Data from US7763636B2, “N-(arylalkyl)-1H-pyrrolopyridine-2-carboxamide derivatives, preparation and therapeutic use thereof” (Sanofi-Aventis, priority 2005, dated 2010).

Target: T1, TRPV1 receptors (Mus musculus, UniProt Q704Y3)
T1 construct: from tissue; host or cells: cornea of the living mouse (C fibres)
Assay: Test of mouse corneal irritation (capsaicin ocular instillation)
Assay type: in vivo
Conditions: 1 mg/kg (po), pretreatment time t = 1 h, n = 10, 2 μl of 160 μM capsaicin in the eye, rubbing counted for 2 min
Experimental: Test of Mouse Corneal Irritation
The irritant nature of capsaicin is readily assessed on the cornea since this organ is one of the organs most densely innervated with C fibres. In this context, from preliminary experiments, the application of a very small amount of capsaicin (2 μl at a concentration of 160 μM) to the surface of the cornea of an animal leads to a certain number of stereotypical behavioral traits associated with irritation, which are easy to record. Among these, the following are noted: blinking of the eye, rubbing of the instilled eye with the ipsilateral front paw, rubbing of the face with both front paws, scratching of the ipsilateral face with the hind paw. […] Its aspect is moreover also normal. […]
In practice, the test product is administered orally and, with a delay (pretreatment time: t) that depends on the pharmacokinetic data, the animal receives an ocular instillation of 2 μl of a 160 μM capsaicin solution prepared as indicated above. During a 2-minute observation following the instillation, the number of times the instilled eye is rubbed with the ipsilateral front paw is recorded.
For a given animal, the percentage of protection is calculated as follows: P=100−((number of scratching actions observed/mean number of scratching actions for the group treated with the solvent)×100) […]

T1 sequence (Q704Y3 whole entry): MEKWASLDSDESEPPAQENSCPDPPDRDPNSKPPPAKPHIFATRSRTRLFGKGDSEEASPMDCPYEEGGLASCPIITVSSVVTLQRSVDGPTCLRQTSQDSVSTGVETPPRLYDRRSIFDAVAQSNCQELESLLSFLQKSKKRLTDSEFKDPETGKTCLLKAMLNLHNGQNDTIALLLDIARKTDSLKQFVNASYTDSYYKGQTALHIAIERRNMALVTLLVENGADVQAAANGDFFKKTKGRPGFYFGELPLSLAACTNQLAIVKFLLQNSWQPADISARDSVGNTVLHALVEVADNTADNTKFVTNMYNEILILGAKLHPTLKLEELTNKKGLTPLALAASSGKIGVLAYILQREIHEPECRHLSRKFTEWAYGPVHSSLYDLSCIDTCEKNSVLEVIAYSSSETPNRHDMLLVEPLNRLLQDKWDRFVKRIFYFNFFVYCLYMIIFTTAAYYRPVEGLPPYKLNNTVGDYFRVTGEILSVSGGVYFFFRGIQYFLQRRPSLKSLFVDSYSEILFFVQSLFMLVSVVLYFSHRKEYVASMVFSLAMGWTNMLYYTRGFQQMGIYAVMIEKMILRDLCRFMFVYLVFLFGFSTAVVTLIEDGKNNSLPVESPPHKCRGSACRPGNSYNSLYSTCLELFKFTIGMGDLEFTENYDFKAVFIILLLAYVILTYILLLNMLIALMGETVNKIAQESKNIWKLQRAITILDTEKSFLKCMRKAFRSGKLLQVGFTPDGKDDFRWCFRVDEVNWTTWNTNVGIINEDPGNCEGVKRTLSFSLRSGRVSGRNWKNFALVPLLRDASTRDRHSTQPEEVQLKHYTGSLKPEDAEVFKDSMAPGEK

Row | SMILES | % P (percentage of protection)
1 | Cn1cnc2cc(NC(=O)c3cc4cc(F)cnc4n3Cc3cccc(F)c3)ccc21 [Compound 15, N-(1-methyl-1H-benzimidazol-5-yl)-5-fluoro-1-[(3-fluorophenyl)methyl]-1H-pyrrolo[2,3-b]pyridine-2-carboxamide] | 50% - (1 h)

Test system: not given
Assay: not given
Conditions: not given

Row | SMILES | melting point [°C]
2 | Cn1ccc2cc(NC(=O)c3cc4ccncc4n3Cc3cccc(F)c3)ccc21 | 213 to 214.5
3 | Cn1ccc2cc(NC(=O)c3cc4cc(C(F)(F)F)cnc4n3Cc3cccc(F)c3)ccc21 | 229 to 231
4 | Cc1nc2cc(NC(=O)c3cc4cnccc4n3Cc3cccc(F)c3)ccc2n1C | 263 to 264
5 | Cn1cnc2cc(NC(=O)c3cc4ncccc4n3Cc3cccc(F)c3)ccc21 | 277 to 281

Now from value to compound:

Row | melting point [°C] | SMILES
6 | 226 to 228 | Cc1nc2cc(NC(=O)c3cc4cc(F)cnc4n3Cc3cccc(F)c3)ccc2n1C
7 | 286 to 288 | Cc1nc2cc(NC(=O)c3cc4cccnc4n3-c3ccccc3)ccc2n1C
8 | 263 to 265 | Cc1nc2cc(NC(=O)c3cc4ncccc4n3Cc3cccc(F)c3)ccc2s1
9 | 245 to 247 | Cc1nc2cc(NC(=O)c3cc4ncccc4n3Cc3cccc(F)c3)ccc2n1C
10 | 240 to 242 | Cc1nc2cc(NC(=O)c3cc4cc(Cl)ncc4n3Cc3cccc(F)c3)ccc2n1C
